The NIST ThermoML archive (doi:10.1021/acs.jced.6b00430)

Experiment: xn = mol fraction of the nth substance listed
Details: 100 kPa, Liquid; for electrical conductivity: Alternating current cell with electrodes; for viscosity: Concentric cylinders viscometry; for mass density: Vibrating tube method

O=[PH](O)O [phosphonic acid] + CN(C)C=O
Details | electrical conductivity [S/m] | mass density [kg/m3] | viscosity [mPa·s]
298.15 K, x1 = 0.0911 | – | 992.53 | –
298.15 K, x1 = 0.1181 | 0.0572 | – | –
298.15 K, x1 = 0.1365 | – | 1016.46 | –
298.15 K, x1 = 0.1798 | – | 1040.55 | –
298.15 K, x1 = 0.1829 | – | 1041.85 | –
298.15 K, x1 = 0.1973 | – | – | 2.92
298.15 K, x1 = 0.2293 | – | 1069.29 | –
298.15 K, x1 = 0.2507 | – | – | 4.75
298.15 K, x1 = 0.291 | – | 1104.79 | –
298.15 K, x1 = 0.2984 | 0.0925 | – | 7.07
298.15 K, x1 = 0.3115 | – | – | 7.88
298.15 K, x1 = 0.3298 | 0.0934 | 1129.74 | –
298.15 K, x1 = 0.3442 | – | 1137.78 | –
298.15 K, x1 = 0.3491 | – | – | 11.5
298.15 K, x1 = 0.3712 | – | 1154.77 | –
298.15 K, x1 = 0.3937 | – | 1169.25 | –
298.15 K, x1 = 0.3968 | 0.129 | – | 17.6
298.15 K, x1 = 0.3988 | – | – | 17.8
298.15 K, x1 = 0.4107 | – | 1182.13 | 20.7
298.15 K, x1 = 0.421 | – | 1188.34 | –
298.15 K, x1 = 0.4479 | 0.141 | 1207.13 | 28.7
298.15 K, x1 = 0.4707 | – | 1221.83 | –
298.15 K, x1 = 0.493 | – | 1235.89 | –
298.15 K, x1 = 0.4968 | – | – | 41.6
298.15 K, x1 = 0.5074 | – | 1244.77 | 43.9
298.15 K, x1 = 0.5196 | – | 1255.1 | –
298.15 K, x1 = 0.5429 | – | 1270.6 | –
298.15 K, x1 = 0.5503 | – | – | 62.4
298.15 K, x1 = 0.5724 | – | 1292.1 | –
298.15 K, x1 = 0.5761 | 0.216 | – | 73.5
298.15 K, x1 = 0.5925 | – | 1306.05 | –
298.15 K, x1 = 0.5993 | – | – | 80.5
298.15 K, x1 = 0.6245 | – | 1328.62 | –
298.15 K, x1 = 0.6261 | – | – | 90
298.15 K, x1 = 0.6316 | 0.294 | – | 95.2
298.15 K, x1 = 0.6478 | – | – | 102.8
298.15 K, x1 = 0.6554 | 0.333 | 1355.76 | 103.3
298.15 K, x1 = 0.6753 | – | 1364.54 | –
298.15 K, x1 = 0.682 | 0.411 | – | 113.5
298.15 K, x1 = 0.6923 | – | 1378.85 | –
298.15 K, x1 = 0.7142 | – | 1399.02 | 122.7
298.15 K, x1 = 0.725 | – | 1401.52 | –
298.15 K, x1 = 0.7592 | – | 1432.85 | –
298.15 K, x1 = 0.7694 | 0.663 | 1444 | 139.8
298.15 K, x1 = 0.7832 | 0.702 | – | 142.5
298.15 K, x1 = 0.7845 | – | 1450.65 | –
308.15 K, x1 = 0.0911 | – | 983.17 | –
308.15 K, x1 = 0.1181 | 0.0647 | – | –
308.15 K, x1 = 0.1365 | – | 1007.16 | –
308.15 K, x1 = 0.1798 | – | 1031.35 | –
308.15 K, x1 = 0.1829 | – | 1032.63 | –
308.15 K, x1 = 0.1973 | – | – | 2.49
308.15 K, x1 = 0.2293 | – | 1060.16 | –
308.15 K, x1 = 0.2507 | – | – | 3.92
308.15 K, x1 = 0.291 | – | 1095.72 | –
308.15 K, x1 = 0.2984 | 0.116 | – | 5.72
308.15 K, x1 = 0.3115 | – | – | 6.3
308.15 K, x1 = 0.3298 | 0.119 | 1120.73 | –
308.15 K, x1 = 0.3442 | – | 1128.83 | –
308.15 K, x1 = 0.3491 | – | – | 9.06
308.15 K, x1 = 0.3712 | – | 1145.98 | –
308.15 K, x1 = 0.3937 | – | 1160.41 | –
308.15 K, x1 = 0.3968 | 0.169 | – | 13.3
308.15 K, x1 = 0.3988 | – | – | 14
308.15 K, x1 = 0.4107 | – | 1173.31 | 15.4
308.15 K, x1 = 0.421 | – | 1179.34 | –
308.15 K, x1 = 0.4479 | 0.19 | 1198.35 | 20.9
308.15 K, x1 = 0.4707 | – | 1213.06 | –
308.15 K, x1 = 0.493 | – | 1227.23 | –
308.15 K, x1 = 0.4968 | – | – | 29.2
308.15 K, x1 = 0.5074 | – | 1236.13 | 30.3
308.15 K, x1 = 0.5196 | – | 1246.49 | –
308.15 K, x1 = 0.5429 | – | 1262.02 | –
308.15 K, x1 = 0.5503 | – | – | 42.4
308.15 K, x1 = 0.5724 | – | 1283.54 | –
308.15 K, x1 = 0.5761 | 0.301 | – | 48.6
308.15 K, x1 = 0.5925 | – | 1297.57 | –
308.15 K, x1 = 0.5993 | – | – | 51
308.15 K, x1 = 0.6245 | – | 1320.2 | –
308.15 K, x1 = 0.6261 | – | – | 59.4
308.15 K, x1 = 0.6316 | 0.41 | – | 61.2
308.15 K, x1 = 0.6478 | – | – | 64.5
308.15 K, x1 = 0.6554 | 0.476 | 1347.39 | 66.1
308.15 K, x1 = 0.6753 | – | 1356.23 | –
308.15 K, x1 = 0.682 | 0.589 | – | 72.4
308.15 K, x1 = 0.6923 | – | 1370.56 | –
308.15 K, x1 = 0.7142 | – | 1390.77 | 78.3
308.15 K, x1 = 0.725 | – | 1393.35 | –
308.15 K, x1 = 0.7592 | – | 1424.69 | –
308.15 K, x1 = 0.7694 | 0.959 | 1435.87 | 87.4
308.15 K, x1 = 0.7832 | 1.02 | – | 88.2
308.15 K, x1 = 0.7845 | – | 1442.56 | –
318.15 K, x1 = 0.0911 | – | 973.7 | –
318.15 K, x1 = 0.1181 | 0.0725 | – | –
318.15 K, x1 = 0.1365 | – | 997.83 | –
318.15 K, x1 = 0.1798 | – | 1022.15 | –
318.15 K, x1 = 0.1829 | – | 1023.41 | –
318.15 K, x1 = 0.1973 | – | – | 2.16
318.15 K, x1 = 0.2293 | – | 1051.04 | –
318.15 K, x1 = 0.2507 | – | – | 3.35
318.15 K, x1 = 0.291 | – | 1086.67 | –
318.15 K, x1 = 0.2984 | 0.142 | – | 4.77
318.15 K, x1 = 0.3115 | – | – | 5.21
318.15 K, x1 = 0.3298 | 0.148 | 1111.75 | –
318.15 K, x1 = 0.3442 | – | 1119.89 | –
318.15 K, x1 = 0.3491 | – | – | 7.26
318.15 K, x1 = 0.3712 | – | 1137.21 | –
318.15 K, x1 = 0.3937 | – | 1151.58 | –
318.15 K, x1 = 0.3968 | 0.217 | – | 10.5
318.15 K, x1 = 0.3988 | – | – | 10.6
318.15 K, x1 = 0.4107 | – | 1164.51 | 12
318.15 K, x1 = 0.4479 | 0.25 | – | 15.8
318.15 K, x1 = 0.4968 | – | – | 21.2
318.15 K, x1 = 0.5074 | – | – | 22.2
318.15 K, x1 = 0.5503 | – | – | 30
318.15 K, x1 = 0.5761 | 0.397 | – | 34.1
318.15 K, x1 = 0.5993 | – | – | 35.2
318.15 K, x1 = 0.6261 | – | – | 41.2
318.15 K, x1 = 0.6316 | 0.548 | – | 42
318.15 K, x1 = 0.6478 | – | – | 43.6
318.15 K, x1 = 0.6554 | 0.626 | – | 45
318.15 K, x1 = 0.682 | 0.81 | – | 49
318.15 K, x1 = 0.7142 | – | – | 51.4
318.15 K, x1 = 0.7694 | 1.33 | – | 57.3
318.15 K, x1 = 0.7832 | 1.41 | – | 58.4
